Experimental data as given in patent US20240209028A1, “CNP COMPOUNDS” (priority 2022, published 2024).
Starred links: 1 amine or outer side, 2 acyl side, 3 side chain; linkers in the order of their positions; H or OH if unused. Positions of bridges follow the written chain, without caps; N, C: chain ends. Residues, ends and D or L forms follow the SMILES beside them. *: point of attachment. C18 diacid = O=C(O)CCCCCCCCCCCCCCCCC(=O)*; γGlu = O=C(O)[C@H](CCC(=O)[*:2])N[*:1]; X1 = O=C(CCCCCCCCCCCCCCCCc1nnn[nH]1)*; AEEA = NCCOCCOCC(=O)O

test: Thioflavin T (ThT) assay: lagtime and peptide recovery; format: physicochemical; details: ThT assay, pH 6.5, 37° C.; assay terminated after 45 hours
Text: The ThT assay was used to evaluate physical stability of the CNP compounds and their suitability for liquid formulation. Low physical stability of peptides may lead to amyloid fibril formation, which is observed as well-ordered, thread-like macromolecular structures in the sample eventually resulting in gel formation. This has traditionally been tested by visual inspection of the sample. However, that kind of measurement is very subjective and depending on the observer. Therefore, the application of a small molecule indicator probe is much more advantageous. Thioflavin T (ThT) is such a probe and has a distinct fluorescence signature when binding to fibrils [Naiki et al. (1989) Anal. Biochem. 177, 244-249; LeVine (1999) Methods. Enzymol. […], 274-284].
Procedure: Thioflavin T was added to the supernatant samples from Example 5 (pH 4.0 and 6.5) using an aqueous ThT stock solution to a final concentration of about 1 μM in the samples. Sample aliquots of 150 μL were placed in a 96 well microtiter plate (Packard OptiPlate™-96, white polystyrene). Usually, two to three replicas of each sample were applied to the plate. The plate was sealed and placed in a fluorescence plate reader (Fluoroskan Ascent FL) and incubated at 37° C. with orbital shaking (960 rpm; 1 mm amplitude). Fluorescence measurements were performed every 20 minutes using excitation through a 444 nm filter and measurement of emission through a 485 nm filter. Between each measurement, the plate was shaken and heated as described above and the assay was terminated after 45 hours. Fluorescence measurements for each microtiter plate well were plotted against time and the lag-time (time until an increase in ThT fluorescence was observed) was estimated.
To assess loss of dissolved peptide following 45h incubation, peptide recovery was measured as the ratio between total peak area after incubation vs. before incubation using the RP-UPLC method described below.
Measurement of LagTime and Peptide recovery % using RP-UPLC: RP-UPLC was conducted using an Acquity UPLC BEH C18 1.7 μm (2.1×30 mm) Waters column (Eluent A: 0.1% v/v % TFA in water; Eluent B: 0.1% v/v TFA in acetonitrile/water 4:1) with gradient elution (0 min: 95% A; 2 min: 20% A; 2.3 min: 20% A; 2.4 min: 95% A; 9 min: 95% A) in a flow rate of 0.9 mL/min and a column temperature of 30° C. UV-detection at 215 nm was used to assess the total peptide area.
Samples at pH 4.0 were prepared as described in Example 5 and subjected to the ThT assay as described above.
Samples at pH 6.5 were prepared as described in Example 5 and subjected to the ThT assay as described above.

Compound	LagTime (h) at pH 6.5
CC[C@H](C)[C@@H]1NC(=O)[C@H](CCCNC(=N)N)NC(=O)[C@H](CC(=O)O)NC(=O)[C@H](CC(C)C)NC(=O)[C@@H]2CCCN2C(=O)[C@H](CC(C)C)NC(=O)CNC(=O)[C@H](Cc2ccccc2)NC(=O)[C@@H](NC(=O)CNC(=O)[C@H](CCC(N)=O)NC(=O)[C@H](CO)NC(=O)[C@H](CC(C)C)NC(=O)CNC(=O)[C@H](CCCCN)NC(=O)[C@H](CCCCN)NC(=O)[C@H](CCC(N)=O)NC(=O)[C@H](C)NC(=O)CNC(=O)[C@H](CCCCN)NC(=O)[C@H](Cc2ccc(O)cc2)NC(=O)[C@H](CCCCN)NC(=O)[C@H](CCCNC(=N)N)NC(=O)[C@H](C)NC(=O)[C@H](CCC(N)=O)NC(=O)[C@@H]2CCCN2C(=O)[C@H](Cc2c[nH]cn2)NC(=O)[C@H](CCC(=O)O)NC(=O)[C@H](CCC(N)=O)NC(=O)COCCOCCNC(=O)COCCOCCNC(=O)COCCOCCNC(=O)COCCOCCNC(=O)CC[C@H](NC(=O)CC[C@H](NC(=O)CC[C@H](NC(=O)CC[C@H](NC(=O)CC[C@H](NC(=O)CCCCCCCCCCCCCCCCC(=O)O)C(=O)O)C(=O)O)C(=O)O)C(=O)O)C(=O)O)CSSC[C@@H](C(=O)O)NC(=O)CNC(=O)[C@H](CC(C)C)NC(=O)CNC(=O)[C@H](CO)NC(=O)[C@H](CC(C)C)NC(=O)[C@H](CO)NC(=O)CNC1=O [compound 1406] ({C18 diacid-γGlu-γGlu-γGlu-γGlu-γGlu-AEEA-AEEA-AEEA-AEEA}-QEHPQARKYKGAQKKGLSQGCFGLPLDRIGSLSGLGC-OH; disulfide 21-37)	45 h
CC[C@H](C)[C@@H]1NC(=O)[C@H](CCCNC(=N)N)NC(=O)[C@H](CC(=O)O)NC(=O)[C@H](CC(C)C)NC(=O)[C@@H]2CCCN2C(=O)[C@H](CC(C)C)NC(=O)CNC(=O)[C@H](Cc2ccccc2)NC(=O)[C@@H](NC(=O)CNC(=O)[C@H](CCC(N)=O)NC(=O)[C@H](CO)NC(=O)CNC(=O)CNC(=O)[C@H](CCCCN)NC(=O)[C@H](Cc2c[nH]cn2)NC(=O)[C@H](CCC(N)=O)NC(=O)[C@H](C)NC(=O)CNC(=O)[C@H](CCC(=O)O)NC(=O)[C@H](Cc2ccc(O)cc2)NC(=O)[C@H](CCCCN)NC(=O)[C@H](CCCNC(=N)N)NC(=O)[C@H](C)NC(=O)COCCOCCNC(=O)COCCOCCNC(=O)COCCOCCNC(=O)COCCOCCNC(=O)CC[C@H](NC(=O)CC[C@H](NC(=O)CCCCCCCCCCCCCCCCC(=O)O)C(=O)O)C(=O)O)CSSC[C@@H](C(=O)O)NC(=O)CNC(=O)[C@H](CC(C)C)NC(=O)CNC(=O)[C@H](CO)NC(=O)[C@H](CC(C)C)NC(=O)[C@H](CO)NC(=O)CNC1=O [compound 1432] ({C18 diacid-γGlu-γGlu-AEEA-AEEA-AEEA-AEEA}-ARKYEGAQHKGGSQGCFGLPLDRIGSLSGLGC-OH; disulfide 16-32)	45 h
CC[C@H](C)[C@@H]1NC(=O)[C@H](CCCNC(=N)N)NC(=O)[C@H](CC(=O)O)NC(=O)[C@H](CC(C)C)NC(=O)[C@@H]2CCCN2C(=O)[C@H](CC(C)C)NC(=O)CNC(=O)[C@H](Cc2ccccc2)NC(=O)[C@@H](NC(=O)CNC(=O)[C@H](CCC(N)=O)NC(=O)[C@H](CO)NC(=O)CNC(=O)CNC(=O)[C@H](CCCCN)NC(=O)[C@H](CCCCN)NC(=O)[C@H](CCC(N)=O)NC(=O)[C@H](C)NC(=O)CNC(=O)[C@H](Cc2c[nH]cn2)NC(=O)[C@H](Cc2ccc(O)cc2)NC(=O)COCCOCCNC(=O)COCCOCCNC(=O)COCCOCCNC(=O)COCCOCCNC(=O)CC[C@H](NC(=O)CC[C@H](NC(=O)CCCCCCCCCCCCCCCCC(=O)O)C(=O)O)C(=O)O)CSSC[C@@H](C(=O)O)NC(=O)CNC(=O)[C@H](CC(C)C)NC(=O)CNC(=O)[C@H](CO)NC(=O)[C@H](CC(C)C)NC(=O)[C@H](CO)NC(=O)CNC1=O [compound 1434] ({C18 diacid-γGlu-γGlu-AEEA-AEEA-AEEA-AEEA}-YHGAQKKGGSQGCFGLPLDRIGSLSGLGC-OH; disulfide 13-29)	45 h
CC[C@H](C)[C@@H]1NC(=O)[C@H](CCCNC(=N)N)NC(=O)[C@H](CC(=O)O)NC(=O)[C@H](CC(C)C)NC(=O)[C@@H]2CCCN2C(=O)[C@H](CC(C)C)NC(=O)CNC(=O)[C@H](Cc2ccccc2)NC(=O)[C@@H](NC(=O)CNC(=O)[C@H](CCC(N)=O)NC(=O)[C@H](CO)NC(=O)[C@H](CC(C)C)NC(=O)CNC(=O)[C@H](CCCCN)NC(=O)[C@H](CCCCN)NC(=O)[C@H](CCC(N)=O)NC(=O)[C@H](C)NC(=O)CNC(=O)[C@H](CCCCN)NC(=O)[C@H](Cc2ccc(O)cc2)NC(=O)[C@H](CCCCN)NC(=O)[C@H](CCCNC(=N)N)NC(=O)[C@H](C)NC(=O)COCCOCCNC(=O)COCCOCCNC(=O)CC[C@H](NC(=O)CC[C@H](NC(=O)CC[C@H](NC(=O)CC[C@H](NC(=O)CC[C@H](NC(=O)CCCCCCCCCCCCCCCCC(=O)O)C(=O)O)C(=O)O)C(=O)O)C(=O)O)C(=O)O)CSSC[C@@H](C(=O)O)NC(=O)CNC(=O)[C@H](CC(C)C)NC(=O)CNC(=O)[C@H](CO)NC(=O)[C@H](CC(C)C)NC(=O)[C@H](CO)NC(=O)CNC1=O [compound 1453] ({C18 diacid-γGlu-γGlu-γGlu-γGlu-γGlu-AEEA-AEEA}-ARKYKGAQKKGLSQGCFGLPLDRIGSLSGLGC-OH; disulfide 16-32)	45 h

same assay, conditions: ThT, 37° C., shaking; assay terminated after 45 hours

Compound	LagTime (h) at pH 4.0
CC[C@H](C)[C@@H]1NC(=O)[C@H](CCCNC(=N)N)NC(=O)[C@H](CC(=O)O)NC(=O)[C@H](CC(C)C)NC(=O)[C@@H]2CCCN2C(=O)[C@H](CC(C)C)NC(=O)CNC(=O)[C@H](Cc2ccccc2)NC(=O)[C@@H](NC(=O)CNC(=O)[C@H](CO)NC(=O)[C@H](CO)NC(=O)[C@@H](NC(=O)CNC(=O)[C@H](CCCCN)NC(=O)[C@H](CCCCN)NC(=O)[C@H](CCC(N)=O)NC(=O)[C@H](C)NC(=O)CNC(=O)[C@H](Cc2c[nH]cn2)NC(=O)[C@H](Cc2ccc(O)cc2)NC(=O)[C@H](CCCCN)NC(=O)[C@H](CCCNC(=N)N)NC(=O)[C@H](C)NC(=O)COCCOCCNC(=O)COCCOCCNC(=O)CC[C@H](NC(=O)CC[C@H](NC(=O)CC[C@H](NC(=O)CCCCCCCCCCCCCCCCC(=O)O)C(=O)O)C(=O)O)C(=O)O)C(C)C)CSSC[C@@H](C(=O)O)NC(=O)CNC(=O)[C@H](CC(C)C)NC(=O)CNC(=O)[C@H](CO)NC(=O)[C@H](CC(C)C)NC(=O)[C@H](CO)NC(=O)CNC1=O [compound 1422] ({C18 diacid-γGlu-γGlu-γGlu-AEEA-AEEA}-ARKYHGAQKKGVSSGCFGLPLDRIGSLSGLGC-OH; disulfide 16-32)	45 h
CC[C@H](C)[C@@H]1NC(=O)[C@H](CCCNC(=N)N)NC(=O)[C@H](CC(=O)O)NC(=O)[C@H](CC(C)C)NC(=O)[C@@H]2CCCN2C(=O)[C@H](CC(C)C)NC(=O)CNC(=O)[C@H](Cc2ccccc2)NC(=O)[C@@H](NC(=O)CNC(=O)[C@H](CCC(N)=O)NC(=O)[C@H](CO)NC(=O)[C@H](CC(C)C)NC(=O)CNC(=O)[C@H](CO)NC(=O)[C@H](CCCCN)NC(=O)[C@H](CCC(N)=O)NC(=O)[C@H](C)NC(=O)CNC(=O)[C@H](Cc2c[nH]cn2)NC(=O)[C@H](Cc2ccc(O)cc2)NC(=O)[C@H](CCCCN)NC(=O)[C@H](CCCNC(=N)N)NC(=O)[C@H](C)NC(=O)COCCOCCNC(=O)COCCOCCNC(=O)CC[C@H](NC(=O)CC[C@H](NC(=O)CCCCCCCCCCCCCCCCc2nnn[nH]2)C(=O)O)C(=O)O)CSSC[C@@H](C(=O)O)NC(=O)CNC(=O)[C@H](CC(C)C)NC(=O)CNC(=O)[C@H](CO)NC(=O)[C@H](CC(C)C)NC(=O)[C@H](CO)NC(=O)CNC1=O [compound 1426] ({X1-γGlu-γGlu-AEEA-AEEA}-ARKYHGAQKSGLSQGCFGLPLDRIGSLSGLGC-OH; disulfide 16-32)	0.33 h
